In brackets after ≈: the same amount, converted by molar mass.
Experiment: Aqueous solubility of co-crystals (saturated solutions in water, liquid chromatography)
Assay type: physicochemical
Conditions: thermodynamic from solid, time point not stated, read-out: solubility for the Free Base (comparison)
Protocol: The aqueous solubility of the co-crystals is determined by creating saturated solutions containing individual co-crystals in water. The saturated solutions are shaken for 24 hours at room temperature. Samples are taken at two timepoints (2 hours and 24 hours) and are filtered and diluted (acetonitrile/water 1:1) before measurement with liquid chromatography.

CN1C(=O)c2c(nn(Cc3ccc(-c4cccc(F)n4)cc3)c2Nc2ccccc2)N2C1=N[C@@H]1CCC[C@@H]12 [Free Base, (6aR,9aS)-5,6a,7,8,9,9a-hexahydro-5-methyl-3-(phenylamino)-2-((4-(6-fluoropyridin-2-yl)phenyl)methyl)-cyclopent[4,5]imidazo[1,2-a]pyrazolo[4,3-e]pyrimidin-4(2H)-one]
solubility: 1 µg/mL (≈ 1.97 µM)

— US20240383909A1, “CO-CRYSTALS” (INTRA-CELLULAR THERAPIES, INC., priority 2021, published 2024)
